From patent publication US12312337B2, “Compounds and methods for treating cancer” (ANTIDOTE IP HOLDINGS, LLC, priority 2019, dated 2025)

Legend:
[1] = molecular target: T1, human AhR (Homo sapiens, UniProt P35869); experiment: INDIGO AhR Reporter Assay (luciferase reporter cells, antagonist mode); assay type: cell-based; settings: antagonist mode with 50 nM of VAF347 (AhR agonist); 22-24 hours incubation; luciferase RLU
T1 construct: INDIGO's Aryl Hydrocarbon Receptor (AhR) Reporter Cells include the luciferase reporter gene functionally linked to an AhR-responsive promoter
T1 sequence (P35869 11-848): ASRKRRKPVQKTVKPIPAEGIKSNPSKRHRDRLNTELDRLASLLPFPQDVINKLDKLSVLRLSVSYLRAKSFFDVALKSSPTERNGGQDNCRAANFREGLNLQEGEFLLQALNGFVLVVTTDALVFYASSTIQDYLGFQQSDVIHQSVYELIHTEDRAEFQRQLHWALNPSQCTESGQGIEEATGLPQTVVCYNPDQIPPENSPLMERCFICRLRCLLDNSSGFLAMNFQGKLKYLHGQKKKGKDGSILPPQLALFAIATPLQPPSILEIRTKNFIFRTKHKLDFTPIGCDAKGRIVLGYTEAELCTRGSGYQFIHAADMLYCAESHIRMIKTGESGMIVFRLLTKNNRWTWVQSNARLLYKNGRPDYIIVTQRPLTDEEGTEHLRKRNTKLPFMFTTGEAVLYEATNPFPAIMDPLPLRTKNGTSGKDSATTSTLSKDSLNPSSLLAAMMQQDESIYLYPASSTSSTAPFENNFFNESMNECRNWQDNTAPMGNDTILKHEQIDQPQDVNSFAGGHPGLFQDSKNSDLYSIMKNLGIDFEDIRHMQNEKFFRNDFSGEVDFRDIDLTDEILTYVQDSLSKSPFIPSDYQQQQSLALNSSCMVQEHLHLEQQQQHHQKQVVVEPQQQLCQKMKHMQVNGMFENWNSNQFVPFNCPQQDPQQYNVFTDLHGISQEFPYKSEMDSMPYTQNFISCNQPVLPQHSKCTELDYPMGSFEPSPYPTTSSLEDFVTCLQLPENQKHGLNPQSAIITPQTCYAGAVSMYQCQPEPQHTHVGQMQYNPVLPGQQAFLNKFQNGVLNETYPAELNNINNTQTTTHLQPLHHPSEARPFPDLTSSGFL
From the text: INDIGO's Aryl Hydrocarbon Receptor (AhR) Reporter Cells include the luciferase reporter gene functionally linked to an AhR-responsive promoter. Thus, quantifying changes in luciferase expression in the treated reporter cells provides a sensitive surrogate measure of the changes in AhR activity. The principle application of this reporter assay is in the screening of test samples to quantify any functional activity, either agonist or antagonist, that they may exert against human AhR. Reporter Cells incorporate the cDNA encoding beetle luciferase, a 62 kD protein originating from the North American firefly (Photinus pyralis). Luciferase catalyzes the mono-oxidation of D-luciferin in a Mg^2+-dependent reaction that consumes 02 and ATP as co-substrates, and yields as products oxyluciferin, AMP, PPi, CO2, and photon emission. Luminescence intensity of the reaction is quantified using a luminometer, and is reported in terms of Relative Light Units (RLU's). In brief, 200 μl of Reporter Cells was dispensed into wells of the assay plate and pre-incubated for 4-6 hours. Following the pre-incubation period, culture media were discarded and 200 µl/well of the prepared 1×-concentration treatment media were added. Following 22-24 hours of incubation, treatment media were discarded and Luciferase Detection Reagent was added. The intensity of light emission (in units of “Relative Light Units” (RLU)) from each assay well was quantified using a plate-reading luminometer. The assay was run as a competitive binding assay in the antagonist mode with 50 nM of VAF347, a known AhR agonist.
In Table 4, IC50 values are reported as A, B, C, or D. A represents an IC50 value of less than 100 nM. B represents an IC50 value of equal or greater than 100 nM and less than 500 nM. C represents an IC50 value of equal or greater than 500 nM and less than 1 μM. D represents an IC50 value of equal or greater than 1 μM.

[2] = test system: AhR; settings: binding to the AhR; acts as an agonist; read-out: apparent Kd; cited from earlier work

Row | SMILES | IC50 [1] | Kd [2]
1 | CCN(CC)S(=O)(=O)c1cc(NC(=O)c2cc3cc(-c4ccccn4)cnc3s2)ccc1Cl [Compound 144, N-[4-chloro-3-(N,N-diethylsulfamoyl)phenyl]-5-(pyridin-2-yl)-thieno[2,3-b]pyridine-2-carboxamide] | 500 to 1000 nM | –
2 | CCN(CC)S(=O)(=O)c1cc(NC(=O)c2cc3cc(-c4ccc(F)cn4)cnc3s2)ccc1Cl [Compound 151, N-[4-chloro-3-(N,N-diethylsulfamoyl)phenyl]-5-(5-fluoropyridin-2-yl)-thieno[2,3-b]pyridine-2-carboxamide] | > 1000 nM | –
3 | CN(C)S(=O)(=O)c1cc(NC(=O)c2cc3cc(-c4ccncc4F)cnc3s2)ccc1Cl [Compound 153, N-[4-chloro-3-(N,N-dimethylsulfamoyl)phenyl]-5-(3-fluoropyridin-4-yl)-thieno[2,3-b]pyridine-2-carboxamide] | 500 to 1000 nM | –
4 | CN1CCN(S(=O)(=O)c2cc(NC(=O)c3ccc4c(c3)NC(=O)CO4)ccc2Cl)CC1 [Compound 172] | 500 to 1000 nM | –
5 | Nc1ccccc1C(=O)CC(N)C(=O)O (centres unmarked) [Kynurenine] | – | ~4000 nM

Now from value to molecule, other results behind:

Row | IC50 [1] | SMILES | Kd [2]
6 | 100 to 500 nM | Cn1nc(-c2ccccc2)cc1NC(=O)c1ccc2cc(-c3ccncc3F)cnc2c1 [Compound 125, 3-(3-fluoropyridin-4-yl)-N-(1-methyl-3-phenyl-1H-pyrazol-5-yl) quinoline-7-carboxamide] | –
7 | < 100 nM | Cn1nc(-c2ccccc2)cc1NC(=O)c1ccc2cc(-c3ccc(F)cn3)cnc2c1 [Compound 128, 3-(5-fluoropyridin-2-yl)-N-(1-methyl-3-phenyl-1H-pyrazol-5-yl) quinoline-7-carboxamide] | –
8 | 100 to 500 nM | CCN(CC)S(=O)(=O)c1cc(NC(=O)c2cc3cc(-c4ccc(F)cc4)cnc3s2)ccc1Cl [Compound 141, N-[4-chloro-3-(N,N-diethylsulfamoyl)phenyl]-5-(4-fluorophenyl)-thieno[2,3-b]pyridine-2-carboxamide] | –
9 | 100 to 500 nM | CCN(CC)S(=O)(=O)c1cc(NC(=O)c2cc3cc(-c4ccncc4)cnc3s2)ccc1Cl [Compound 142, N-[4-chloro-3-(N,N-diethylsulfamoyl)phenyl]-5-(pyridin-4-yl)-thieno[2,3-b]pyridine-2-carboxamide] | –
10 | 100 to 500 nM | CCN(CC)S(=O)(=O)c1cc(NC(=O)c2cc3cc(-c4ccncc4F)cnc3s2)ccc1Cl [Compound 145, N-[4-chloro-3-(N,N-diethylsulfamoyl)phenyl]-5-(3-fluoropyridin-4-yl)-thieno[2,3-b]pyridine-2-carboxamide] | –
11 | 100 to 500 nM | CN(C)S(=O)(=O)c1cc(NC(=O)c2cc3cc(-c4ccc(F)cc4)cnc3s2)ccc1Cl [Compound 148, N-[4-chloro-3-(N,N-dimethylsulfamoyl)phenyl]-5-(4-fluorophenyl)-thieno[2,3-b]pyridine-2-carboxamide] | –
